# US8710045B2, “Agents for preventing and treating disorders involving modulation of the ryanodine receptors” (The Trustees of Columbia University in the City of New York, priority 2004, dated 2014)
# Assays:
# [1] = target: T1, PKA-phosphorylated RyR2 (Homo sapiens, UniProt Q92736); assay: FKBP12.6 rebinding assay: FKBP12.6 binding to PKA-phosphorylated RyR2 in cardiac SR
# T1 construct: from tissue
# Procedure: Samples are centrifuged at 95,000 g for 10 min and the pellets are washed three times in 0.2 ml imidazole buffer. The final pellets are pooled and resuspended in imidazole buffer (final concentration≈10 μg/μl). […] Samples then are centrifuged at 100,000 g for 10 minutes and pellets washed 3 times with imidizol buffer. […] Immunoblots are developed using an anti-FKBP antibody (1:3,000 dilution). […] The intracellular solution contains (in mM): CsCl, 60; CaCl2, 1; EGTA, 11; MgCl2, 1; K2ATP, 5; HEPES, 10; aspartic acid, 50; pH 7.4 (CsOH). Under these conditions, it is expected that the measured current was carried by Ba^2+ primarily through L-type calcium channels which is referred to as ICa,L. Drugs are applied by a local solution changer and reach the cell membrane within 1 s.
# The FKBP12.6 rebinding assay described above is used to determine the amount of FKBP12.6 binding to PKA-phosphorylated RyR2 at various concentrations (0.5-1000 nM) of the compounds shown. EC50 values are calculated using Michaelis-Menten curve fitting.
# The EC50 values are calculated using Michaelis-Menten curve fitting.
# [2] = tested on: C57BL/6J mice; assay: S107 chronic exercise model: treadmill run to exhaustion; assay type: in vivo, mouse
# Procedure: Mice were allowed to recover for three days prior to the initiation of exercise. Standard food and water were provided ad libitum through the experiment.
# Chronic Exercise Model: The daily swimming protocol consisted of twice-daily swimming sessions separated by a one-hour rest period. After an initial conditioning regimen lasting 5 days during which the swimming sessions were increased in 10 minute increments from 40 minutes each to 80 minutes each, the swimming sessions thereafter lasted 90 minutes each. A 30 cm wide by 30 cm long opaque acrylic tank was filled with tap water to a depth of at least 20 cm. Water was circulated and warmed to 32-34° C. using a separate reservoir with heating element, thermostat, and pump. 8 mice, balanced pair-wise with respect to genotype and/or treatment group, swam at any one time in the tank.
# Treadmill performance: A Columbus Instruments (Columbus, Ohio) treadmill (Model: Exer-6M Treadmill with Treadmill Shock Detection Unit) with 6 lanes was used to run the mice. Mice were placed in their respective lanes with the shocking apparatus turned off and allowed to adjust to the surroundings for 10 minutes. The forward half of the treadmill was covered with aluminum foil to block out light and a desk lamp illuminated the shocking area at the rear of the treadmill. After the adjustment period, the treadmill was set to 10 meters/min, and the mice were trained to run with gentle prodding for 6 minutes. The electric current was then turned on, and the number of shocks delivered during the next two three minute intervals (training period) were recorded. The shock counter was then reset and visits to the shocking area and shocks delivered to each mouse were recorded at three-minute intervals until the end of the experiment. At regular intervals, the speed of the treadmill was ramped up from the initial 10 m/min to 24 m/min. The speed was increased no more than 2 m/min every 6 minutes. Task failure was defined when a mouse could not continue running despite gentle prodding.
# Age and sex-matched WT mice were randomized to receive osmotic pumps containing either S107 or vehicle. […] Exercise capacity was assessed once a week by a level treadmill run to exhaustion during the nocturnal cycle of the mouse. The mice were not exercised on the same day as treadmill assessments. […] These studies are complicated by the training effect of repeated exercise which leads to improved performance due to enhanced musculature. Isometric force production was measured in EDL muscles in a tissue bath during field stimulation.
# [3] = target: T2, RyR1 (Mus musculus, UniProt E9PZQ0); assay: RyR1 single channel recording in planar lipid bilayers from exercised mice; assay type: in vivo; conditions: 90 nM [Ca2+]cis
# T2 construct: RyR1 was immunoprecipitated from soleus muscle homogenates of mice following 21 days of exercise; from tissue; host or cells: mouse hind-limb skeletal muscle (soleus, EDL; SR microsomes for bilayer recording)
# T2 sequence (E9PZQ0 whole entry): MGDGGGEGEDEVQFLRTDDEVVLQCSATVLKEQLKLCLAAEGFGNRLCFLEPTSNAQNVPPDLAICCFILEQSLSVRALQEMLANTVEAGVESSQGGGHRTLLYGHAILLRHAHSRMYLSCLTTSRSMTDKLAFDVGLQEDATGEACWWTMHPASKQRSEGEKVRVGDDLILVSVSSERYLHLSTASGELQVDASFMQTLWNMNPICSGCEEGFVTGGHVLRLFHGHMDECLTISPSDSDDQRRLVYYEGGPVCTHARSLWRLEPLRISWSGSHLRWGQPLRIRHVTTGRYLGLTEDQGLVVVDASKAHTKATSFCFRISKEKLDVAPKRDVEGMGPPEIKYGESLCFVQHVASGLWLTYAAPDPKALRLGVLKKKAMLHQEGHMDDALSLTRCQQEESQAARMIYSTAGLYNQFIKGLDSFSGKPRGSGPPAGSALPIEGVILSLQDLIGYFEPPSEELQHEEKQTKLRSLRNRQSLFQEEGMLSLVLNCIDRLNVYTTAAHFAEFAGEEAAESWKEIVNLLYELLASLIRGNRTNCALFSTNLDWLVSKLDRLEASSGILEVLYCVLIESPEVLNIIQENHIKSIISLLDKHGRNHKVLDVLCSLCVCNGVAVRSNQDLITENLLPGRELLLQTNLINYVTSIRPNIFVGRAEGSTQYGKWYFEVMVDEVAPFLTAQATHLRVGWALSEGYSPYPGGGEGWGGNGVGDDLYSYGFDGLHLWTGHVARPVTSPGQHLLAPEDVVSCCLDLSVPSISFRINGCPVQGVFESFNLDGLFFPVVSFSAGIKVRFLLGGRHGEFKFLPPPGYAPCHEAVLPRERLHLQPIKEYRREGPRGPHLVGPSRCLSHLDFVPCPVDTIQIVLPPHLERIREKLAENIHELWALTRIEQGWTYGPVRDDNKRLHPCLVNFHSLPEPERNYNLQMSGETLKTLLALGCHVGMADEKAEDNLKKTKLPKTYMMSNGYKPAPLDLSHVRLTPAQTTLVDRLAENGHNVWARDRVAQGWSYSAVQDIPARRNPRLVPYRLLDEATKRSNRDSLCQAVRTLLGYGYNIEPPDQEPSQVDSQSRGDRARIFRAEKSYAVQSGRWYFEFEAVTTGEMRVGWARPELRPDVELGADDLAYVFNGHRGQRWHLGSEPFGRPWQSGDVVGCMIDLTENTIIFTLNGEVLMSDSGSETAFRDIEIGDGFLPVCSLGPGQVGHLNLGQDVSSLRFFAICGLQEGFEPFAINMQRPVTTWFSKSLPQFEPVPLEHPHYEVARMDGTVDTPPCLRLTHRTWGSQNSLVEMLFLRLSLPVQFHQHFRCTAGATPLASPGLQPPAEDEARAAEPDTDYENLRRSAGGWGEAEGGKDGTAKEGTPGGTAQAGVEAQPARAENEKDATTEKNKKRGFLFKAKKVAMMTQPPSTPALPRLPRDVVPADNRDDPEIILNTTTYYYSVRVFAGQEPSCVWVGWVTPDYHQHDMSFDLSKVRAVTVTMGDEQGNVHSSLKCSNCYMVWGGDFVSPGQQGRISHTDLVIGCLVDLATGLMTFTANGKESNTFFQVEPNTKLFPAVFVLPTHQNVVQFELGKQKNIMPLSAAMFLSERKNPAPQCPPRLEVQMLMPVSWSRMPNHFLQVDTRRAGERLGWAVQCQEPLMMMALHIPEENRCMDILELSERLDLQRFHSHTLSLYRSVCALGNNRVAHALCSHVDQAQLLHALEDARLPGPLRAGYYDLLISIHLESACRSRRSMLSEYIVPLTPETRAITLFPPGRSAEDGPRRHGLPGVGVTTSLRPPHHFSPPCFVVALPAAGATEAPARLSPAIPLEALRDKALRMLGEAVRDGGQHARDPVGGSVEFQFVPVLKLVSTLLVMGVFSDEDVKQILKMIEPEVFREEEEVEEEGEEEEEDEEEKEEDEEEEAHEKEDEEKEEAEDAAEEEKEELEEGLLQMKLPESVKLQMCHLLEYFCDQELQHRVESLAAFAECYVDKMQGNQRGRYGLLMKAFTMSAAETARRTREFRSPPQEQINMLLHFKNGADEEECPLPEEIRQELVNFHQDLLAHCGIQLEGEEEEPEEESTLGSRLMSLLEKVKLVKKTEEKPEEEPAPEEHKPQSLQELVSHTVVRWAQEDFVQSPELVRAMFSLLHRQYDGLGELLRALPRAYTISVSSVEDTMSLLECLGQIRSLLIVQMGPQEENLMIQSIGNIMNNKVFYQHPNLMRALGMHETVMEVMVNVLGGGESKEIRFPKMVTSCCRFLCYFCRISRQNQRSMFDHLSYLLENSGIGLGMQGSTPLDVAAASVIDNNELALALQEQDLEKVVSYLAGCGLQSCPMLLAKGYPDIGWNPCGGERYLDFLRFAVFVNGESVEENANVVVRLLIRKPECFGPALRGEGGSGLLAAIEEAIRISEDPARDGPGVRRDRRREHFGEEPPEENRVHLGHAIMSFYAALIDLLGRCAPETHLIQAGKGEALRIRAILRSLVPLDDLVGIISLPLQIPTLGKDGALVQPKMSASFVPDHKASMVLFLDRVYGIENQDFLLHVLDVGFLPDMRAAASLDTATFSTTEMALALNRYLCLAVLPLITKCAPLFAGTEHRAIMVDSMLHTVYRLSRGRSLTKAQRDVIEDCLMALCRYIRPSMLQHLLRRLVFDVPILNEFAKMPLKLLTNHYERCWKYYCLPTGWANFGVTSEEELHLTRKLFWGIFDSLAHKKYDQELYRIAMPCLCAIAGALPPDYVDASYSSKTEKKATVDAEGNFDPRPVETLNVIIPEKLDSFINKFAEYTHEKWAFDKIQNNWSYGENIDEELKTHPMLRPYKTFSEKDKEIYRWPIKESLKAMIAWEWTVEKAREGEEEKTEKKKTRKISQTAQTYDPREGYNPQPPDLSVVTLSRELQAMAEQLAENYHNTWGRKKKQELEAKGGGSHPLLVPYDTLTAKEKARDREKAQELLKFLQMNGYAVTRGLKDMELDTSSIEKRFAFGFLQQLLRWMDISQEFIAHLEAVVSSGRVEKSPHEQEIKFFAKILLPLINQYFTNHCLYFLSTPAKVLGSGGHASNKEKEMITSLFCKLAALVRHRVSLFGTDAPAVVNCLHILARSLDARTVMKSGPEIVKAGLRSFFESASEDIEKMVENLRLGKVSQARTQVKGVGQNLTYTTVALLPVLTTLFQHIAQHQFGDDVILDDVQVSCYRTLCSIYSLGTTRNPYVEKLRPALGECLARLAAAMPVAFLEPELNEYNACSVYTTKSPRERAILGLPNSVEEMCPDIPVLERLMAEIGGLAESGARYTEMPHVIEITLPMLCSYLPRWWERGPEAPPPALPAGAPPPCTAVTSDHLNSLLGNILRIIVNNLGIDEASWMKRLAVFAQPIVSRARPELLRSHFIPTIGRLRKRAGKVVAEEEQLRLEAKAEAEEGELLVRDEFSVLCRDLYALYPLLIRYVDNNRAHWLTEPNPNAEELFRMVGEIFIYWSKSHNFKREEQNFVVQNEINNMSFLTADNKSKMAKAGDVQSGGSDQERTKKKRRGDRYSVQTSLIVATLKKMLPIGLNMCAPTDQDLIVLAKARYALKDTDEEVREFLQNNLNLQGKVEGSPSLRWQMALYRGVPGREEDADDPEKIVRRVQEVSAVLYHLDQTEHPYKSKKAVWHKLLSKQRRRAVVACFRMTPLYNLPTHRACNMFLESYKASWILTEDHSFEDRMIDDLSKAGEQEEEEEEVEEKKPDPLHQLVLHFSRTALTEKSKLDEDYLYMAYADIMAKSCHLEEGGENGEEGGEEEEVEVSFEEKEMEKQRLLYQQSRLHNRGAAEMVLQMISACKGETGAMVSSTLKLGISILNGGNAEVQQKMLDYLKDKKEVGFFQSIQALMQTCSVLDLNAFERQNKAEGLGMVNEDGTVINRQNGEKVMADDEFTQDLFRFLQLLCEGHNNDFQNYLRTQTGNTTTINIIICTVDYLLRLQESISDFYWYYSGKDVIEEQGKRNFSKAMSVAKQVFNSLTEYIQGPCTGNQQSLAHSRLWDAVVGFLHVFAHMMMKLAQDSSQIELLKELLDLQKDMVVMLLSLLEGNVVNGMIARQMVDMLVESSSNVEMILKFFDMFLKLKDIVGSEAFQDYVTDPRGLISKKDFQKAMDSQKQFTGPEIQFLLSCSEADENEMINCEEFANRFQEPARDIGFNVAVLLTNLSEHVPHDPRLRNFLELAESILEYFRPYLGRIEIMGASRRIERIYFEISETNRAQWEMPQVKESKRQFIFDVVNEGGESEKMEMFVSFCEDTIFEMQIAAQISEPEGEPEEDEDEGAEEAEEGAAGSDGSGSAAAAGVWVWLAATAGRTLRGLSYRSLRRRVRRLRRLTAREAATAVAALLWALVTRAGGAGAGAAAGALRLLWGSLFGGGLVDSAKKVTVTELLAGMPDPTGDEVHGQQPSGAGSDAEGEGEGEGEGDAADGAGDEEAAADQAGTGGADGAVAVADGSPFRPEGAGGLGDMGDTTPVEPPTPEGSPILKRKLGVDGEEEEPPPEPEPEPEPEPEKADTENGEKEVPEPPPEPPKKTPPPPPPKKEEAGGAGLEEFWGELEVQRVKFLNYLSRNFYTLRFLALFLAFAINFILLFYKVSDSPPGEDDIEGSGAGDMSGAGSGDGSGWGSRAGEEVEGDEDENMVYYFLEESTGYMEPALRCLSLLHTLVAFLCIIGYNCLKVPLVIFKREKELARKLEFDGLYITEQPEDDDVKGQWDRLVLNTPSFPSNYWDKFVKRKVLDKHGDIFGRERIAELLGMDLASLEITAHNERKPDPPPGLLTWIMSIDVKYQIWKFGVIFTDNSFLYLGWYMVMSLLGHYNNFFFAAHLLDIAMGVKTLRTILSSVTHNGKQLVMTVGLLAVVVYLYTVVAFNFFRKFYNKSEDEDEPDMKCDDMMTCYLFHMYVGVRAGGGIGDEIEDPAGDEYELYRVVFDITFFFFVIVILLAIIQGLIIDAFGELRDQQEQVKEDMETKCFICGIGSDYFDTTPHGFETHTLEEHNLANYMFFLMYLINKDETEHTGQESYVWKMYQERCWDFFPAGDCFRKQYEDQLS
# T2 sequence (P26883 2-108 partner limits assumed): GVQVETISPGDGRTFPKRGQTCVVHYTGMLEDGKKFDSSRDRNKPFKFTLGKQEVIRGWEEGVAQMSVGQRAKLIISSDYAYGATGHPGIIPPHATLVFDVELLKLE
# Procedure: RyR1 channels were reconstituted by spontaneous fusion of microsomes into the planar lipid bilayer (a mixture of phosphatidylethanolamine and phosphatidylserine in a 3:1 ratio, Avanti Polar Lipids). Planar lipid bilayers were formed across a 200 μm aperture in a polysulfonate cup (Warner Instruments, Inc.), which separated two bathing solutions (1 mM EGTA, 250/125 mM HEPES/Tris, 50 mM KCl, 0.5 mM CaCl2, pH 7.35 as cis solution and 53 mM Ba(OH)2, 50 mM KCl, 250 mM HEPES, pH 7.35 as trans solution). After incorporation, RyR1 channel activity was recorded continuously for at least 10 minutes. The concentration of free Ca^2+ in the cis chamber was calculated with WinMaxC program (version 2.50) (Bers, Patton et al. 1994). Single channel currents were recorded at 0 mV using the Axopatch 200A patch-clamp amplifier (Axon Instruments, USA) in gap-free mode, filtered at 1 kHz, and digitized at 10 kHz. Data acquisition was performed using Digidata 1322A and Axoscope 9 software (Axon Instruments, USA). The recordings were analyzed using Clampfit 10.1 (Molecular Devices, USA) and Origin software (ver. 6.0, Microcal Software, Inc., USA).
# Chronic exercise results in leaky RyR1 Channels which can be reversed by calstabin1 rebinding: A critical issue is whether the biochemical changes in the RyR1 macromolecular complex identified during exercise result in changes in RyR1 channel activity. […]
Structure (SMILES),potency at increasing the binding of FKBP12.6 and RyR2 compared with JTV-519 [1],"EC50 ([1]; compound 0.5-1000 nM, Michaelis-Menten curve fitting) [nM]","acute effect on WT treadmill exercise performance ([2]; 2.5 ug/hr osmotic pump, WT mice)","treadmill exercise capacity (time to failure) vs vehicle ([2]; Day 21, WT mice, p<0.05)",treadmill performance ([2]; mice deficient in calstabin1),body weight ([2]; throughout trial),duration of the channel dwell times [3],"RyR1 open probability ([3]; Ex+S107 vs Ex+veh, p<0.005)"
COc1ccc2c(c1)CN(C(=O)C(=O)O)CCS2 [S36],more potent,15,,,,,,
COc1ccc2c(c1)CN(C)CCS2 [S107],,,no acute effect,relatively protected against a decline in treadmill exercise capacity,failed to improve treadmill performance,did not result in a change,Neither chronic exercise nor S107 had any effect,significant decrease
